Data published in ChEMBL document CHEMBL3882731, “Novel sulfonaminoquinoline Hepcidin antagonists” (2014).

molecular target: T1, Ferroportin (Homo sapiens, UniProt Q9NP59); experiment: Antagonist activity at C-terminal halo-tag fused human ferroportin expressed in MDCK cells assessed as inhibition of hepcidin-induced ferroportin internalization after overnight incubation by Draq5 staining-based fluorescence assay; format: cell-based
T1 sequence (Q9NP59 whole entry): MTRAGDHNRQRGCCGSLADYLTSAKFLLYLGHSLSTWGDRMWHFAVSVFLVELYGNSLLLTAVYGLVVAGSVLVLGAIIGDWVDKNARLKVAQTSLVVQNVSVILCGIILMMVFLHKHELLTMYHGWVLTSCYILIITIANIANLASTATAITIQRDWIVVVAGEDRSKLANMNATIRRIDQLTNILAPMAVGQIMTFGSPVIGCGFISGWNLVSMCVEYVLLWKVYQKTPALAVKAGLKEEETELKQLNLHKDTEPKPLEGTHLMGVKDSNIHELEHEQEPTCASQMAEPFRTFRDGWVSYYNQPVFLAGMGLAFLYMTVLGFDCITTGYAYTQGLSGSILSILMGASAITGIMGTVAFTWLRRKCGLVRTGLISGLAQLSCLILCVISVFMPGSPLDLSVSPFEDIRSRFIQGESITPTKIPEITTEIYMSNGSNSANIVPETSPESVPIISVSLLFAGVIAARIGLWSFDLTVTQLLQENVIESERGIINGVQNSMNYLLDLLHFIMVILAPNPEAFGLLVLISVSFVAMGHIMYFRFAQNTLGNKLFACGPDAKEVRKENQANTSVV

Row | SMILES | IC50 [µM]
1 | Cc1ccc2cccc(NS(=O)(=O)c3ccccc3)c2n1 | 100
2 | Cc1ccc2cccc(NS(=O)(=O)c3ccccc3N)c2n1 | 100
3 | COc1ccc(S(=O)(=O)Nc2cccc3cccnc23)c(N)c1 | 100
4 | COc1ccc(S(=O)(=O)Nc2cccc3cccnc23)cc1 | 100
5 | Cc1cc(NS(=O)(=O)c2ccccc2)c2ncccc2c1Cl | 100
6 | COc1ccnc2c3c(ccc12)-c1ccccc1S(=O)(=O)N3 | 100
7 | O=S(=O)(Nc1c(Cl)ccc2cccnc12)c1ccccc1 | 100
8 | COc1cc(NS(=O)(=O)Nc2cccc(Cl)c2C)c2ncccc2c1 | 100
9 | O=S(=O)(Nc1ccc(Br)c2cccnc12)c1ccccc1 | 100
10 | Cc1cnc2c(NS(=O)(=O)c3ccc(Cl)cc3Cl)cccc2c1 | 100
11 | Nc1cc(C(F)(F)F)ccc1S(=O)(=O)Nc1ccc(Cl)c2cccnc12 | 100
12 | COc1ccc2cccnc2c1NS(=O)(=O)c1ccccc1 | 100
13 | O=S(=O)(Nc1ccc(Cl)c2cccnc12)c1ccc(Cl)cc1Cl | 100
14 | Cc1ccc2cccnc2c1NS(=O)(=O)c1ccccc1 | 100
15 | CN1c2c(ccc3cccnc23)-c2ccccc2S1(=O)=O | 100
16 | O=S(=O)(Nc1cccc2cccnc12)c1c(Cl)cccc1Cl | 100
17 | Cc1ccc2ccc3c(c2n1)NS(=O)(=O)c1ccccc1-3 | 100
18 | CCOc1cc(NS(=O)(=O)c2ccccc2)c2ncccc2c1 | 100
19 | CCc1ccc2cccnc2c1NS(=O)(=O)c1ccccc1 | 100

Row | SMILES | IC50 [µM]
20 | COc1ccnc2c(NS(=O)(=O)c3ccccc3)cccc12 | 100
21 | O=S(=O)(Nc1cccc2ccc(Cl)nc12)c1ccccc1 | 100
22 | COc1cc(NS(=O)(=O)Nc2c(F)cccc2F)c2ncccc2c1 | 100
23 | COc1ccc(S(=O)(=O)Nc2cccc3ccc(C)nc23)c(N)c1 | 100
24 | O=S(=O)(Nc1cc(Cl)cc2cccnc12)c1ccccc1 | 100
25 | CC(=O)Nc1cc(C(F)(F)F)ccc1S(=O)(=O)Nc1cccc2cccnc12 | 100
26 | CC(C)c1ccc2cccnc2c1NS(=O)(=O)c1ccccc1 | 100
27 | COC(=O)c1ccnc2c(NS(=O)(=O)c3ccccc3)cccc12 | 50
28 | COc1ccccc1S(=O)(=O)Nc1cccc2cccnc12 | 100
29 | COc1cc2cccnc2c2c1-c1ccccc1S(=O)(=O)N2 | 100
30 | Cc1ccccc1S(=O)(=O)Nc1cccc2cccnc12 | 100
31 | Cc1c(Cl)cccc1NS(=O)(=O)Nc1ccc(Cl)c2cccnc12 | 100
32 | COc1cc(NS(=O)(=O)c2ccc(Cl)cc2Cl)c2ncccc2c1 | 100
33 | Cc1ccc(S(=O)(=O)Nc2cccc3cc(C)cnc23)c(N)c1 | 100
34 | Cc1cccc(Cl)c1S(=O)(=O)Nc1cccc2cccnc12 | 100
35 | Cc1cc(C)c(S(=O)(=O)Nc2c(Cl)cc(Cl)c3cccnc23)c(C)c1 | 100
36 | O=S(=O)(Nc1c(O)ccc2cccnc12)c1ccccc1 | 100
37 | Cc1cc(NS(=O)(=O)c2ccccc2)c2ncccc2c1C | 100
38 | O=[N+]([O-])c1cc(C(F)(F)F)ccc1S(=O)(=O)Nc1cccc2cccnc12 | 100
